Patent USRE39072E1, “2-aminopropane-1,3-diol compounds, medicinal use thereof, and intermediates in synthesizing the same” (Mitsubishi Pharma Corporation, priority 1997, dated 2006)

Assays:
[1] = system: allogenic skin graft (WKAH rat to F344 rat); test: Allogenic skin graft in rats, WKAH rat skin to F344 rat; format: in vivo; conditions: oral; for mean survival time of skin graft: once a day for 14 days, dose 1 mg/kg or 10 mg/kg (FIG. 1), not stated which
Description: (§1) A full-thickness skin graft (1.5×1.5 cm) of a 4-week-old male WKAH rat or LEW rat is grafted to a graft to a graft bed on the back of a 4-week-old male F344 rat by suture. The graft is covered with a sterile gauze and bound. The bandage is removed 5 days after the grafting and the skin graft is observed daily until it is rejected. […] The number of days from the grafting to rejection is taken as a graft survival days. Test compounds are intraperitoneally, intravenously or orally administered repeatedly once a day for 14 days.
The comparative compound 1 was 2-amino-2-(2-(4-(4-phenylbutyloxy)phenyl)ethyl)propane-1,3-diol disclosed in WO94/08943, comparative compound 2 was 2-amino-2-methyl-2-(2-(4-(4-phenylbutyloxy)phenyl)butanol disclosed in WO96/06068.

[2] = system: allogenic skin graft (LEW rat to F344 rat); test: Allogenic skin graft in rats, LEW rat skin to F344 rat; format: in vivo
Description: EXPERIMENTAL EXAMPLE 12 (Prolonging effect of skin graft on allogenic skin graft in rats)
as §1

[3] = Body weight change on allogenic skin graft in rats; format: in vivo, rat; conditions: 13 days of consecutive repeat oral administration of 10 mg/kg, rats of allogenic skin graft test (FIG. 2)
Procedure: (Body weight change on allogenic skin graft in rats)
The changes in body weight in rats of Experimental Example 12 on testing of allogenic skin graft in rats, after 13 days of consecutive repeat oral administration of 10 mg/kg of test compounds are shown in FIG. 2.

Compound	prolonging effect on graft survival compared with comparative compound 2 [1]	prolonging effect on graft survival days compared to control group and comparative compound 1 group [1]	mean survival time of skin graft [1]	prolonging effect on graft survival compared to control group administered with vehicle alone [2]	mean survival time of skin graft ([2]; dose not stated)	change in body weight [3]
NC(CO)(CO)CCc1ccc(C(=O)CCCCc2ccccc2)cc1 [Compound (I-a), 2-amino-2-(2-(4-(1-oxo-5-phenylpentyl)phenyl)ethyl)propane-1,3-diol]	equivalent prolonging effect	prolonged graft survival days statistically significantly	16.6 ± 1.2 days	statistically significant prolonging effect	≥ 20 days	natural gain of body weight as in the control group
CC(N)(CO)CCc1ccc(OCCCCc2ccccc2)cc1 (stereo not shown) [comparative compound 2, reference compound]			15.6 ± 1.4 days			a suppressive effect on the gain of the body weight
NC(CO)(CO)CCc1ccc(OCCCCc2ccccc2)cc1 [comparative compound 1, 2-amino-2-(2-(4-(4-phenylbutyloxy)phenyl)ethyl)propane-1,3-diol, reference compound]			11.9 ± 0.7 days			a suppressive effect on the gain of the body weight
